Assay results published in ChEMBL document CHEMBL3734654, “Mutational mapping of the transmembrane binding site of the G-protein coupled receptor TGR5 and binding mode prediction of TGR5 agonists” (Eur J Med Chem, 2015).
Activity calls are given as the source filed them. The calls are words filed in the database; no cut-off is given here.

Tested on: T1, G-protein coupled bile acid receptor 1 (Homo sapiens), Q8TDU6 [E169A]
T1 sequence (whole entry): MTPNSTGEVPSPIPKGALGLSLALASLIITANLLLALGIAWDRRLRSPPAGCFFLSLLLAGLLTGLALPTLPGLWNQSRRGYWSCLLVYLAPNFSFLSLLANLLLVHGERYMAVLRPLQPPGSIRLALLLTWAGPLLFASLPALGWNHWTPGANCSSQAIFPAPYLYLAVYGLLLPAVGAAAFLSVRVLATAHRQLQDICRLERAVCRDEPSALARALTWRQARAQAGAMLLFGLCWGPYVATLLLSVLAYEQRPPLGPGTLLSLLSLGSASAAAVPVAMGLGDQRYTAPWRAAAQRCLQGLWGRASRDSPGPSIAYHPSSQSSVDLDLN
Assay: Agonist activity at human TGR5 E169A mutant expressed in HEK293 cells assessed as rise in intracellular cAMP level at 10 uM incubated for 16 hrs by luciferase reporter assay relative to wild type
Type: functional, cell-based

C=C[C@@]1(C)CC(=O)[C@]2(O)[C@@]3(C)[C@@H](O)CCC(C)(C)[C@@H]3[C@H](O)[C@H](OC(C)=O)[C@@]2(C)O1
Activity: Active
